Values of other authors as cited in patent US6872734B2, “Use of tiagabine for treatment of diabetic neuropathy and migraine” (Abbott Laboratories, priority 2000, dated 2005).

System: GABA uptake
Settings: for inhibition of GABA uptake: according to J. Pharm. Exp. Therap., 228 (1984), 109

Cc1ccsc1C(=CCCN1CCC[C@@H](C(=O)O)C1)c1sccc1C [(R)-N-[4,4-Bis(3-methyl-2-thienyl)-3-butenyl]nipecotic acid]
GABA uptake inhibitory properties (acid and salts thereof, cf. U.S. Pat. No. 5,010,090): effective GABA uptake inhibitory compounds

O=C(O)C1CCCN(CCC=C(c2ccccc2)c2ccccc2)C1 (stereo not shown) [SK&F 89976A, N-(4,4-diphenyl-3 butenyl)nipecotic acid]
inhibition of GABA uptake: active inhibitors of GABA uptake

O=C(O)C1=CCCN(CCC=C(c2ccccc2)c2ccccc2)C1 [SK&F 100330A, N-(4,4-diphenyl-3-butenyl)guvacine]
inhibition of GABA uptake: active inhibitors of GABA uptake

O=C(O)C1CCCN(CCC=C(c2ccccc2)c2cccs2)C1 (stereo not shown) [SK&F 100604J, N-(4-phenyl-4-(2-thienyl)-3-butenyl)nipecotic acid]
inhibition of GABA uptake: active inhibitors of GABA uptake
